From patent US10703757B2, “Compounds and methods for CDK8 modulation and indications therefor” (Plexxikon Inc., priority 2016, dated 2020)

System: CDK8 (phosphorylation of STAT1 at serine 727 in A549 cells)
Experiment: Cell based Phospho-STAT1 assay (IFNγ-stimulated A549 cells, AlphaLISA)
Conditions: Homo sapiens, A549, A549 cells, phospho-STAT1 after IFNγ stimulation
Procedure: Determine Inhibitor Activity Against CDK8 in Cell Based Phospho-STAT1 Assay
This assay measures the phosphorylation of the CDK8 substrate STAT1 following Interferon-gamma (IFNγ) stimulation^1. The lung carcinoma cell line A549 is seeded in a 96 well plate in 50 μL of culture media at 5×10^4 cells/well and incubated at 37° C. overnight. Serial dilutions of compounds (in total volume of 50 μL culture media) are added to the cells and incubated at 37° C. for one hour. Human IFNγ (R&D Systems) is added to the cells at a 10 ng/mL final concentration. 4 wells containing DMSO treated cells stimulated with IFNγ serve as high controls and 4 wells containing DMSO treated unstimulated cells serve as low controls. After 30 minute IFNγ stimulation at 37° C., the culture media is removed and 50 μL of 1×AlphaLISA lysis buffer (PerkinElmer GA, USA) is added to each well. 5 μL cell lysate is transferred to a 384 well AlphaPlate (PerkinElmer GA, USA) and 5 μL containing 0.156 nM Phospho-STAT1 (Ser727) rabbit monoclonal antibody (Cell Signaling Technology), 0.156 nM Mouse Anti-STAT1 antibody (BD Transduction Laboratories), and 10 μg/mL Anti-rabbit IgG AlphaLISA acceptor beads (PerkinElmer GA, USA) diluted in 1× AlphaLISA immunoassay buffer (PerkinElmer GA, USA) is added to the cell lysates and incubated at room temperature for 90 minutes. 5 μL Anti-Mouse IgG Alpha donor beads diluted in 1× AlphaLISA immunoassay buffer (PerkinElmer GA, USA) is added to the reaction mixture and incubated at room temperature for 90 minutes. Upon excitation of these beads with laser light at 680 nm, singlet oxygen is produced. This singlet oxygen is rapidly quenched, unless the AlphaLISA Anti-Rabbit IgG acceptor beads are in close proximity, in which case a proximity signal can be measured at […]. In the presence of cellular CDK8 catalytic activity, there is a very strong proximity signal. Selective CDK8 inhibitors affect a decrease in this proximity signal through a decrease in phosphorylation of STAT1 at serine 727. The percentage inhibition at individual concentrations relative to high and low controls is calculated. The data are analyzed by using nonlinear regression to generate IC50 values.

SMILES	IC50 [µM]
CCOC(=O)C1CC=C(c2cccn3ncc(-c4ccc(-c5cnn(C)c5)cc4)c23)CC1 (stereo not shown) [Compound P-0446, ethyl 4-(3-(4-(1-methyl-1H-pyrazol-4-yl)phenyl)pyrazolo[1,5-a]pyridin-4-yl)cyclohex-3-ene-1-carboxylate]	0.1 to 1
Cn1cc(-c2ccc(-c3cnc4cccc(N5CCC(C(N)=O)CC5)n34)cc2)cn1 [Compound P-0400, 1-(3-(4-(1-methyl-1H-pyrazol-4-yl)phenyl)imidazo[1,2-a]pyridin-5-yl)piperidine-4-carboxamide]	0.1 to 1
CC(C)(O)C#Cc1cccn2ncc(-c3ccc(OCCN4CCCCC4)cc3)c12 [Compound P-0406, 2-methyl-4-(3-(4-(2-(piperidin-1-yl)ethoxy)phenyl)pyrazolo[1,5-a]pyridin-4-yl)but-3-yn-2-ol]	0.1 to 1
N#CC1CCC(c2cccn3ncc(-c4ccc(-c5cnn(C(F)F)c5)cc4)c23)CC1 (stereo not shown) [Compound P-0346, 4-(3-(4-(1-(difluoromethyl)-1H-pyrazol-4-yl)phenyl)pyrazolo[1,5-a]pyridin-4-yl)cyclohexane-1-carbonitrile]	0.1 to 1
Cn1cc(-c2ccc(-c3cnc4ccc(C#N)c(N5CCC(C#N)CC5)n34)cc2)cn1 [Compound P-0339, 5-(4-cyanopiperidin-1-yl)-3-(4-(1-methyl-1H-pyrazol-4-yl)phenyl)imidazo[1,2-a]pyridine-6-carbonitrile]	0.1 to 1
Cn1cc(-c2ccc(-c3cnn4cccc(C#CC5(O)COC5)c34)cc2)cn1 [Compound P-0368, 3-((3-(4-(1-methyl-1H-pyrazol-4-yl)phenyl)pyrazolo[1,5-a]pyridin-4-yl)ethynyl)oxetan-3-ol]	0.0001 to 0.1
Cn1cc(-c2ccc(-c3cnc4cccc(N5CCN(c6ccccn6)CC5)n34)cc2)cn1 [Compound P-0385, 3-(4-(1-methyl-1H-pyrazol-4-yl)phenyl)-5-(4-(pyridin-2-yl)piperazin-1-yl)imidazo[1,2-a]pyridine]	1 to 10
CC(=O)NC(C)(C)C#Cc1cccn2ncc(-c3ccc(-c4cnn(C)c4)cc3)c12 [Compound P-0307, N-(2-methyl-4-(3-(4-(1-methyl-1H-pyrazol-4-yl)phenyl)pyrazolo[1,5-a]pyridin-4-yl)but-3-yn-2-yl)acetamide]	0.1 to 1
Cn1ncc2cc(-c3cnn4cccc(N5CCC(C#N)(c6ccccn6)CC5)c34)ccc21 [Compound P-0364, 1-(3-(1-methyl-1H-indazol-5-yl)pyrazolo[1,5-a]pyridin-4-yl)-4-(pyridin-2-yl)piperidine-4-carbonitrile]	0.0001 to 0.1
CC(C)(O)C#Cc1cccn2ncc(-c3ccc(-c4cnn(C(F)F)c4)cc3)c12 [Compound P-0370, 4-(3-(4-(1-(difluoromethyl)-1H-pyrazol-4-yl)phenyl)pyrazolo[1,5-a]pyridin-4-yl)-2-methylbut-3-yn-2-ol]	0.0001 to 0.1
N#CC1CCN(c2cccn3ncc(-c4ccc(-c5nc(C6CC6)no5)cc4)c23)CC1 [Compound P-0423, 1-(3-(4-(3-cyclopropyl-1,2,4-oxadiazol-5-yl)phenyl)pyrazolo[1,5-a]pyridin-4-yl)piperidine-4-carbonitrile]	0.0001 to 0.1
Cn1cc(-c2ccc(-c3cnc4cccc(N5CCC(C)(O)CC5)n34)cc2)cn1 [Compound P-0396, 4-methyl-1-(3-(4-(1-methyl-1H-pyrazol-4-yl)phenyl)imidazo[1,2-a]pyridin-5-yl)piperidin-4-ol]	0.1 to 1
Cn1cc(C#Cc2cnn3cccc(C4=CCC(C#N)CC4)c23)cn1 (stereo not shown) [Compound P-0433, 4-[3-[2-(1-methylpyrazol-4-yl)ethynyl]pyrazolo[1,5-a]pyridin-4-yl]cyclohex-3-ene-1-carbonitrile]	0.0001 to 0.1
Cn1cc(-c2ccc(-c3cnc4cccc(N5CCC(CO)CC5)n34)cc2)cn1 [Compound P-0434, [1-[3-[4-(1-methylpyrazol-4-yl)phenyl]imidazo[1,2-a]pyridin-5-yl]-4-piperidyl]methanol]	1 to 10
N#CC1CCN(c2cccn3ncc(-c4ccc(-c5nc(C(F)(F)F)no5)cc4)c23)CC1 [Compound P-0424, 1-(3-(4-(3-(trifluoromethyl)-1,2,4-oxadiazol-5-yl)phenyl)pyrazolo[1,5-a]pyridin-4-yl)piperidine-4-carbonitrile]	1 to 10
Cn1cc(-c2ccc(-c3cnn4cccc(N5CCC(C#N)CC5)c34)cc2)cn1 [Compound P-0422, 1-(3-(4-(1-methyl-1H-pyrazol-4-yl)phenyl)pyrazolo[1,5-a]pyridin-4-yl)piperidine-4-carbonitrile]	0.0001 to 0.1

SMILES	IC50 [µM]
Cn1cncc1C#Cc1cnc2cccc(N3CCC4(CC3)C(=O)Nc3ccccc34)n12 [Compound P-0376, 1′-[3-[2-(3-methylimidazol-4-yl)ethynyl]imidazo[1,2-a]pyridin-5-yl]spiro[indoline-3,4′-piperidine]-2-one]	0.1 to 1
Cn1cc(-c2ccc(-c3cnn4cccc(-c5cn[nH]c5)c34)cc2)cn1 [Compound P-0430, 3-(4-(1-methyl-1H-pyrazol-4-yl)phenyl)-4-(1H-pyrazol-4-yl)pyrazolo[1,5-a]pyridine]	1 to 10
Cc1nn(C)c(C)c1-c1ccc(-c2cnn3cccc(C#CC(C)(C)O)c23)cc1 [Compound P-0236, 2-methyl-4-(3-(4-(1,3,5-trimethyl-1H-pyrazol-4-yl)phenyl)pyrazolo[1,5-a]pyridin-4-yl)but-3-yn-2-ol]	1 to 10
Cn1cc(-c2ccc(-c3cnn4cccc(N5CCC(C#N)(c6ccccn6)CC5)c34)cc2)cn1 [Compound P-0365, 1-(3-(4-(1-methyl-1H-pyrazol-4-yl)phenyl)pyrazolo[1,5-a]pyridin-4-yl)-4-(pyridin-2-yl)piperidine-4-carbonitrile]	0.0001 to 0.1
Cn1cc(C#Cc2cnc3cccc(N4CCC5(CC4)COC5)n23)cn1 [Compound P-0354, 7-(3-((1-methyl-1H-pyrazol-4-yl)ethynyl)imidazo[1,2-a]pyridin-5-yl)-2-oxa-7-azaspiro[3.5]nonane]	1 to 10
Cn1cc(-c2ccc(-c3cnc4cccc(N5CCN(c6cccnc6)CC5)n34)cc2)cn1 [Compound P-0386, 3-(4-(1-methyl-1H-pyrazol-4-yl)phenyl)-5-(4-(pyridin-3-yl)piperazin-1-yl)imidazo[1,2-a]pyridine]	0.0001 to 0.1
Cn1cc(-c2ccc(-c3cnn4cccc(-c5ccnc(C#N)c5)c34)cc2)cn1 [Compound P-0425, 4-[3-[4-(1-methylpyrazol-4-yl)phenyl]pyrazolo[1,5-a]pyridin-4-yl]pyridine-2-carbonitrile]	1 to 10
CC(C)(C)OC(=O)N1CCC(Oc2cccc3ncc(-c4ccc(-c5cnn(C(F)F)c5)cc4)n23)CC1 [Compound P-0306, tert-butyl 4-((3-(4-(1-(difluoromethyl)-1H-pyrazol-4-yl)phenyl)imidazo[1,2-a]pyridin-5-yl)oxy)piperidine-1-carboxylate]	1 to 10
CC(C)(C#N)COc1cccc2ncc(-c3ccc(-c4cnn(C(F)F)c4)cc3)n12 [Compound P-0355, 3-((3-(4-(1-(difluoromethyl)-1H-pyrazol-4-yl)phenyl)imidazo[1,2-a]pyridin-5-yl)oxy)-2,2-dimethylpropanenitrile]	0.1 to 1
CN1CCN(C(=O)c2ccc3cc(-c4cnn5cccc(C6=CCC(C#N)CC6)c45)ccc3c2)CC1 (stereo not shown) [Compound P-0356, 4-(3-(6-(4-methylpiperazine-1-carbonyl)naphthalen-2-yl)pyrazolo[1,5-a]pyridin-4-yl)cyclohex-3-ene-1-carbonitrile]	0.0001 to 0.1
Cn1cc(-c2ccc(-c3cnc4cccc(NC5CCOCC5)n34)cc2)cn1 [Compound P-0388, 3-(4-(1-methyl-1H-pyrazol-4-yl)phenyl)-N-(tetrahydro-2H-pyran-4-yl)imidazo[1,2-a]pyridin-5-amine]	0.1 to 1
Cc1noc(C)c1-c1ccc(-c2cnn3cccc(C#CC(C)(C)O)c23)cc1 [Compound P-0227, 4-(3-(4-(3,5-dimethylisoxazol-4-yl)phenyl)pyrazolo[1,5-a]pyridin-4-yl)-2-methylbut-3-yn-2-ol]	1 to 10
Cn1cc(-c2ccc(-c3cnc4cccc(N5CCC(C#N)(c6ccccc6)CC5)n34)cc2)cn1 [Compound P-0451, 1-(3-(4-(1-methyl-1H-pyrazol-4-yl)phenyl)imidazo[1,2-a]pyridin-5-yl)-4-phenylpiperidine-4-carbonitrile]	0.0001 to 0.1
Cn1cc(-c2ccc(-c3cnc4cccc(N5CCC(C)(C#N)CC5)n34)cc2)cn1 [Compound P-0401, 4-methyl-1-(3-(4-(1-methyl-1H-pyrazol-4-yl)phenyl)imidazo[1,2-a]pyridin-5-yl)piperidine-4-carbonitrile]	0.0001 to 0.1
Cn1ncc2cc(-c3cnn4cccc(N5CCC(C#N)CC5)c34)ccc21 [Compound P-0405, 1-(3-(1-methyl-1H-indazol-5-yl)pyrazolo[1,5-a]pyridin-4-yl)piperidine-4-carbonitrile]	0.0001 to 0.1
